Reference: paper PMC4457826 (PLoS Pathogens, 2015)

Experiments:
[1] = test system: myc-tagged D762R/D764R (MRGR) USP7; assay: Co-immunoprecipitation with myc-tagged D762R/D764R (MRGR) USP7 from 293T cells; format: cell-based, human; conditions: anti-myc IP
Method: (§1) 293T cells were grown in Dulbecco’s modified Eagle’s medium (DMEM) (Gibco) with 10% fetal calf serum. 293T cells at 70% confluence in a 10-cm-diameter dish were transfected with 10 μg pCANmycUSP7 expressing WT USP7 or D762R/D764R (MRGR) USP7 or with pcDNA3.1 (negative control), in each case using 20 μl PolyJet (SignaGen Laboratories) transfection reagent. Cells were transferred to a 15-cm-diameter dish 24 h post-transfection and harvested 48 h post-transfection. For experiments on USP7-ICP0 interactions, 293T cells were co-transfected with 1 μg pCANmycUSP7 expressing WT or D762R/D764R (MRGR) USP7 and either 1 μg pCI-110 ICP0 or 1 μg pcDNA3.1. For controls lacking USP7, 1 μg pCI-110 ICP0 was co-transfected with 1 μg pcDNA3.1. In each case 4 μl PolyJet (SignaGen Laboratories) transfection reagent was used.
Protein samples were subjected to SDS-PAGE and transferred to nitrocellulose. Membranes were blocked in 5% skim milk in Tris-buffered saline with 1% Tween (TBS-T) and then incubated with antibodies against ICP0 (H1A027 from Virusys Corporation; 1:5000 dilution), myc (sc-40 from Santa Cruz Biotechnology; 1:5000 dilution), NP95/UHRF1 (A301-470A from Bethyl Laboratories; 1:1000 dilution), GMPS (rabbit serum raised against full-length GMPS [17]; 1:5000 dilution) and actin (MA5-15739 from Pierce; 1:20,000 dilution). After washing, blots were probed with goat anti-mouse or goat anti-rabbit peroxidase (Santa Cruz Biotechnology; 1:5000 dilution) and developed using chemiluminescence reagents (Santa Cruz biotechnology).
293T cells transfected as described above were washed in phosphate-buffered saline (PBS) and lysed on ice for 45 min in a 4x volume of RIPA buffer (50 mM Tris-HCl [pH 8], 150 mM NaCl, 0.1% sodium deoxycholate, 0.5% NP-40) with complete protease inhibitors (Sigma P8340), followed by centrifugation. 1 mg of each clarified lysate was incubated with 1 μg of anti-myc antibody for 1h, followed by incubation with 30 μl of A/G PLUS agarose resin (Santa Cruz Biotechnology) for 2 h at 4°C with end-over-end rotation. The resin was harvested by centrifugation, washed in RIPA buffer, and then boiled in SDS loading buffer. Immunoprecipitated proteins were separated by SDS-PAGE and analyzed by Western blotting, as described above.

[2] = test system: myc-tagged WT USP7; assay: Co-immunoprecipitation with myc-tagged WT USP7 from 293T cells; format: cell-based, human; conditions: anti-myc IP, endogenous protein, Western blot, Fig 5B
Method: as §1
Protein samples were subjected to SDS-PAGE and transferred to nitrocellulose. […]
293T cells transfected as described above were washed in phosphate-buffered saline (PBS) and lysed on ice for 45 min in a 4x volume of RIPA buffer (50 mM Tris-HCl [pH 8], 150 mM NaCl, 0.1% sodium deoxycholate, 0.5% NP-40) with complete protease inhibitors (Sigma P8340), followed by centrifugation. […] Immunoprecipitated proteins were separated by SDS-PAGE and analyzed by Western blotting, as described above.

[3] = test system: USP7-NTD; assay: GST pull-down, USP7-NTD; format: binding, human; conditions: USP7 domain mapping, Fig 1B/1E, listed as GST-ICP0 615–629
Source text: (§2) Next we determined which region of USP7-CTD interacted with the ICP0 615–629 peptide. FL-USP7, USP7-CTD as well as Ubl12, Ubl123, Ubl345 and Ubl45 (Fig 1B) were used as prey in GST pull-down assays using GST-ICP0 615–629. FL-USP7 and USP7-CTD were used as positive controls while GST alone and USP7-NTD were used as negative controls.
(§3) The ICP0, GMPS and UHRF1 WT and mutant peptides were cloned into pGEX-2TK and expressed in E. coli BL21(DE3). GST-ICP0 594–775 was obtained from Roger Everett. The GST-ICP0 or GST-GMPS or GST-UHRF1 or GST-ICP0 594–775 cell pellets from 500 ml of LB broth were re-suspended with PBS and lysed using sonication. The cleared lysates were applied to 500 μl of equilibrated glutathione-sepharose beads and incubated with rocking for 60 min at 4°C. Unbound proteins were removed by washing with PBS. Bound proteins were eluted with 50 mM Tris pH 8.0 and 100 mM NaCL containing 30 mM reduced glutathione. Equal amounts (250 μg) of the various USP7 proteins were incubated with 250 μg of the GST-ICP0 or GST-GMPS or GST-UHRF1 or GST-ICP0 594–775 peptides in 50 mM Tris pH 8.0, 100 mM NaCl, 5 mM DTT, 5% glycerol, 0.1 mM Benzamidine and 0.05 mM PMSF, applied to equilibrated glutathione-sepharose beads and incubated overnight with rocking at 4°C. After extensive washing, bound proteins were eluted with 50 mM Tris pH 8.0 and 100 mM NaCl containing 30 mM reduced glutathione.

[4] = test system: USP7-CTD mutant E759A; assay: GST pull-down, USP7-CTD E759A; format: binding, human
Method: (§4) Fragments representing USP7-CTD Ubl domains were prepared using ligation independent cloning with In-Fusion (Clontech) in p15TV-L. The boundaries of the Ubl domain constructs are Ubl12 (535–776), Ubl123 (535–889), Ubl345 (776–1102), Ubl45 (886–1102) and USP7-CTD (535–1102). Plasmids expressing USP7-NTD, USP7, and myc-USP7 WT (pCANmycUSP7) were described previously. USP7 mutants E759A, D762A, D764A and D762A/D764A in Ubl123 were synthesized (Genscript) and inserted into the pET15b plasmid. USP7 mutants E759A, D762A, D764A, D762A/D764A and D762R/D764R in USP7-CTD were prepared by ACGT Corporation. The D762R/D764R mutant was then sub-cloned into wild-type pCANmycUSP7 for co-IP assays. The mammalian ICP0 expression construct pCI-110 ICP0 was obtained from Roger Everett.
(§5) The ICP0, GMPS and UHRF1 WT and mutant peptides were cloned into pGEX-2TK and expressed in E. coli BL21(DE3). GST-ICP0 594–775 was obtained from Roger Everett. The GST-ICP0 or GST-GMPS or GST-UHRF1 or GST-ICP0 594–775 cell pellets from 500 ml of LB broth were re-suspended with PBS and lysed using sonication. The cleared lysates were applied to 500 μl of equilibrated glutathione-sepharose beads and incubated with rocking for 60 min at 4°C. Unbound proteins were removed by washing with PBS. Bound proteins were eluted with 50 mM Tris pH 8.0 and 100 mM NaCL containing 30 mM reduced glutathione. […]

[5] = molecular target: T1, USP7 Ubl12 (Homo sapiens, UniProt Q93009); assay: GST pull-down, Ubl12; format: binding; conditions: USP7 domain mapping, Fig 1B/1E, listed as GST-ICP0 615–629
T1 construct: Ubl12 (535–776); His tag (inferred from nickel-NTA purification; vector p15TV-L); made in house; host or cells: E. coli BL21(DE3)mgk
Method: as §4, §5

[6] = test system: USP7 Ubl345; assay: GST pull-down, Ubl345; format: binding, human; conditions: USP7 domain mapping, Fig 1B/1E, listed as GST-ICP0 615–629
Method: as §4, §5

[7] = test system: USP7 Ubl45; assay: GST pull-down, Ubl45; format: binding, human; conditions: USP7 domain mapping, Fig 1B/1E, listed as GST-ICP0 615–629
Method: as §4, §5

[8] = molecular target: T2, Ubl123 mutant D764A (Homo sapiens, UniProt Q93009, D764A); assay: GST pull-down, Ubl123 D764A; format: binding; conditions: Fig 3F
T2 construct: Ubl123 (535–889); (vector pET15b); made in house; host or cells: E. coli BL21(DE3)mgk
Method: as §4, §5

[9] = molecular target: T3, Ubl123 mutant E759A (Homo sapiens, UniProt Q93009, E759A); assay: GST pull-down, Ubl123 E759A; format: binding; conditions: Fig 3F
T3 construct: Ubl123 (535–889); (vector pET15b); made in house; host or cells: E. coli BL21(DE3)mgk
Method: as §4, §5

[10] = test system: USP7-CTD mutant D762A/D764A; assay: GST pull-down, USP7-CTD D762A/D764A; format: binding, human
Method: as §4, §3

[11] = test system: USP7-CTD mutant D764A; assay: GST pull-down, USP7-CTD D764A; format: binding, human
Method: as §4, §5

[12] = molecular target: T4, Ubl123 mutant D762A/D764A (Homo sapiens, UniProt Q93009, D762A/D764A); assay: GST pull-down, Ubl123 D762A/D764A; format: binding; conditions: Fig 3F
T4 construct: Ubl123 (535–889); (vector pET15b); made in house; host or cells: E. coli BL21(DE3)mgk
Method: as §4, §5

[13] = test system: USP7-CTD mutant D762A; assay: GST pull-down, USP7-CTD D762A; format: binding, human
Method: as §4, §3

[14] = molecular target: T5, USP7 Ubl123 (Homo sapiens, UniProt Q93009); assay: GST pull-down, Ubl123; format: binding; conditions: USP7 domain mapping, Fig 1B/1E, listed as GST-ICP0 615–629
T5 construct: Ubl123 (535–889); His tag (inferred from nickel-NTA purification; vector p15TV-L); made in house; host or cells: E. coli BL21(DE3)mgk
Method: as §4, §3

[15] = molecular target: T6, USP7-CTD (Homo sapiens, UniProt Q93009); assay: GST pull-down, USP7-CTD; format: binding
T6 construct: USP7-CTD (535–1102); His tag (inferred from nickel-NTA purification; vector p15TV-L); made in house; host or cells: E. coli BL21(DE3)mgk
Method: as §4, §3

[16] = molecular target: T7, Ubl123 mutant D762A (Homo sapiens, UniProt Q93009, D762A); assay: GST pull-down, Ubl123 D762A; format: binding; conditions: Fig 3F
T7 construct: Ubl123 (535–889); (vector pET15b); made in house; host or cells: E. coli BL21(DE3)mgk
Method: as §4, §5

[17] = test system: FL-USP7; assay: GST pull-down, USP7-FL; format: binding, human
Method: The USP7 binding region is found within ICP0 residues 594–633 and mutagenesis studies have shown that K620 is essential for the interaction. In order to facilitate crystallization and structure determination, we set out to identify a shorter peptide that is capable of binding to USP7. To this end, a series of overlapping GST-ICP0 fusions (591–605, 595–609, 599–613, 603–617, 607–621, 611–625, 615–629, 619–633) were prepared (see Fig 1A for sequence details) and used in GST pull-down assays. […] Overall, our GST pull-down assays identified ICP0 residues between 619 and 629 as important mediators of USP7 binding in agreement with a previous study.
as §2, §3

[18] = test system: USP7-CTD mutant D762R/D764R; assay: GST pull-down, USP7-CTD D762R/D764R; format: binding, human
Method: as §4, §5

[19] = GST pull-down, USP7 domain mapping, Fig 1B/1E, listed as GST-ICP0 615–629

T6 sequence (Q93009 535-1102): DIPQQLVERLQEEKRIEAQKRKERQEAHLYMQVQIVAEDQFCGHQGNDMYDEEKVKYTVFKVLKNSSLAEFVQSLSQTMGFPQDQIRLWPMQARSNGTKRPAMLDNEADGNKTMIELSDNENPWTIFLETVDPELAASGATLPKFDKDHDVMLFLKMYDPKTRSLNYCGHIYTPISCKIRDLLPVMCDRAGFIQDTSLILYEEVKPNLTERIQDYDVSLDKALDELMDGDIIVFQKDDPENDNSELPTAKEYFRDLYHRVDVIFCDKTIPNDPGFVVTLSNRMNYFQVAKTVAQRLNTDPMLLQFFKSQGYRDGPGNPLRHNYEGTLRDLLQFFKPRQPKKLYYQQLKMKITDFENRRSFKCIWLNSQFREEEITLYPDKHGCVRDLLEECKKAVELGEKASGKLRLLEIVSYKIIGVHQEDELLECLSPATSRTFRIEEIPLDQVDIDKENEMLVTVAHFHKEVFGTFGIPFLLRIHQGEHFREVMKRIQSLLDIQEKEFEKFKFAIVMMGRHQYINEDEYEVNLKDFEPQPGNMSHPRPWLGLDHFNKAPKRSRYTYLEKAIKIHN
T1 sequence (Q93009 535-776): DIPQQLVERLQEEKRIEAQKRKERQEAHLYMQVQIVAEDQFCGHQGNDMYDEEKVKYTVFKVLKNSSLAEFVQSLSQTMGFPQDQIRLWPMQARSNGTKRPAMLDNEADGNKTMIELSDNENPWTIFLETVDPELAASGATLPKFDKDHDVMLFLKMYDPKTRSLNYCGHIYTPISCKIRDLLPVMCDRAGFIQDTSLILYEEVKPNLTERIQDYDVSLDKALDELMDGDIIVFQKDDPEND
T2 sequence (Q93009 535-889 D764A): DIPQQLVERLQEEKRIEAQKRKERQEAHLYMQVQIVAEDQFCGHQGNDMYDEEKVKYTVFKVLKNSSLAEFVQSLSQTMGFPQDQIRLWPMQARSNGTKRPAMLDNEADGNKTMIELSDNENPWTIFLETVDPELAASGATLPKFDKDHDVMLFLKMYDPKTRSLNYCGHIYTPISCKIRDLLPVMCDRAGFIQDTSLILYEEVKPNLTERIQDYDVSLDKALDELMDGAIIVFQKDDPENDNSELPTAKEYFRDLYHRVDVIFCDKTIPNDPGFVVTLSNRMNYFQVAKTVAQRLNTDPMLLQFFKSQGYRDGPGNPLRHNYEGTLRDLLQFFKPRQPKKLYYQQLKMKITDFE
T4 sequence (Q93009 535-889 D762A/D764A): as the sequence (Q93009 535-889 D764A) above, with D228A counted along it
T5 sequence (Q93009 535-889): as the sequence (Q93009 535-889 D764A) above, with A230D counted along it
T7 sequence (Q93009 535-889 D762A): as the sequence (Q93009 535-889 D764A) above, with D228A, A230D counted along it
T3 sequence (Q93009 535-889 E759A): as the sequence (Q93009 535-889 D764A) above, with E225A, A230D counted along it

## GMPS: endogenous GMP synthase in 293T cells
[1]; D762R/D764R mutant, endogenous protein, multiple experiments, Fig 5B
  binding relative to recovery with WT USP7: 35% (± 16%)
[1]; Western blot, Fig 5
  recovery with D762R/D764R USP7 (co-IP), in words: significantly decreased
[2]
  recovery with WT USP7 (co-IP): efficiently recovered

## PRGPRKCARKTRHAE [ICP0 615–629, GST-ICP0 fusion of ICP0 residues 615–629]
[3]
  Interaction with ICP0 615-629: USP7-NTD: not USP7-NTD
[4]
  Binding to USP7-CTD mutant E759A: Binding was abolished
[5]
  Interaction with ICP0 615-629: Ubl12: interacted
[6]
  Interaction with ICP0 615-629: Ubl345: no interaction
[7]
  Interaction with ICP0 615-629: Ubl45: no interaction
[8]
  Binding to Ubl123 mutant D764A: Binding was abolished
[9]
  Binding to Ubl123 mutant E759A: Binding was abolished
[10]
  Binding to USP7-CTD mutant D762A/D764A: Binding was abolished
[11]
  Binding to USP7-CTD mutant D764A: Binding was abolished
[12]
  Binding to Ubl123 mutant D762A/D764A: Binding was abolished
[13]
  Binding to USP7-CTD mutant D762A: Binding was abolished
[14]
  Interaction with ICP0 615-629: Ubl123: interacted
[15]; GST fusions 250 μg + USP7-CTD 250 μg, 50 mM Tris pH 8.0, 100 mM NaCl, 5 mM DTT, 5% glycerol, overnight 4°C, Coomassie stained gel, Fig 1A/1D, symbols not defined
  Interaction with USP7-CTD (overlapping GST-ICP0 peptides): strongest interaction
[15]; [19]
  Interaction with ICP0 615-629: USP7-CTD: FL-USP7 as well as USP7-CTD but not USP7-NTD or GST alone interacted
[16]
  Binding to Ubl123 mutant D762A: Binding was abolished
[17]; GST fusions 250 μg + USP7 250 μg, 50 mM Tris pH 8.0, 100 mM NaCl, 5 mM DTT, 5% glycerol, overnight 4°C, Coomassie stained gel, Fig 1A/1C, symbols not defined
  Interaction with USP7-FL (overlapping GST-ICP0 peptides): strongest interaction
[17]; [19]
  Interaction with ICP0 615-629: USP7-FL: FL-USP7 as well as USP7-CTD but not USP7-NTD or GST alone interacted

## TGKGKWKR [UHRF1 peptide, UHRF1 peptide with KxxxK motif, residues 642–649]
[18]
  Binding to USP7-CTD mutant D762R/D764R: disrupted
[10]
  Binding to USP7-CTD mutant D762A/D764A: disrupted
[13]
  Binding to USP7-CTD mutant D762A: disrupted
